Patent US3966957A, “Method for controlling emesis with N-(1-substituted-3-pyrrolidinyl)benzamides and thiobenzamides” (A. H. Robins Company, Incorporated, priority 1974, dated 1976)

Key:
[1] = system: apomorphine-induced emesis; experiment: Reduction of apomorphine-induced emesis in dogs, subcutaneous administration; assay type: in vivo, dog; settings: for ED50: Canis lupus familiaris, sc, read-out: ED50, Anti-Emetic Effect of Subcutaneous Administration
Description: (§1) The anti-emetic properties of the compounds of Formulae I and II were established using a modification of the methods of Chen and Ensor, J. Pharmac. Exp. Ther. 98: 245-250 (1950) and of Leonard et al, J. Pharmac. Exp. Ther. 154, 339-345 (1966). Drug activity was assessed by its ability to reduce the frequency of apomorphine-induced emesis in dogs. The dogs were prescreened for fairly constant emetic responses to the subcutaneous administration of 0.1 mg./kg. of apomorphine hydrochloride, and those which vomited five or more times in the 40-minute period after apomorphine administration were selected for drug studies.
(§2) Groups of three dogs were used in preliminary tests and for the determinations of time of peak drug effect. Dose response curves were usually obtained using four drug-treated groups; each group contained at least three dogs. The dogs were fed approximately 17 hours prior to a test. Drugs were administered and at suitable intervals the dogs received 0.1 mg/kg of apormorphine hydrochloride subcutaneously. Frequency of emesis was determined during the next 40 minutes and emesis was counted as the actual expulsion of stomach contents.
In oral studies, drugs were administered in gelatin capsules (controls received an empty capsule). In the subcutaneous studies, drugs were administered in distilled water and/or polyethylene glycol-300.
Dogs were re-used at intervals of not less than one week. The ED50 is the dose which reduces the frequency of emesis of drug treated dogs to a value 50% below that of controls. Mean frequency of emesis for each drug treated group was compared with a mean control value derived by pooling the prior control emetic frequencies for all dogs used on that test day. The difference is expressed as a percentage decrease relative to controls. The per cent decrease in mean frequency of emesis for each drug-treated group (ordinate) was plotted against log dose (abscissa) on semi-log graph sheets. The ED50 was calculated by the method of Goldstein (Biostatistics, An Introductory Test; Pages 156-161; The MacMillan Co., New York, 1964).
Three dogs selected as described above were injected subcutaneously with 5.0 mg./kg. (3.12 mg./kg. expressed as free base) of the test drug 4-amino-N-(1-cyclohexyl-3-pyrrolidinyl)-N-methyl-benzamide cyclohexane-sulfamate from compound Example 4. One hour later apormorphine hydrochloride was administered in doses of 0.1 mg./kg. subcutaneously. Complete blockage of emesis (-100%) was observed over the 40-minute period following administration of apomorphine hydrochloride. […] (0.27 mg./kg. expressed as free base) was established for subcutaneous administration of the test drug.
Using the technique described in the foregoing general procedure and pharmacology in Example 1 for subcutaneous evaluation of test drugs against apomorphine induced emesis, results for additional compounds were obtained as shown in Table 4.

[2] = system: catalepsy; experiment: Catalepsy in rats (IP), modified Tedeschi procedure; assay type: in vivo, rat; settings: IP administration in rats, as free base (Table 7)
Description: (§3) Drugs were blind tested with positive and negative controls. […] The modified procedure is as follows.
(§4) Groups of six rats are dosed (IP) with drugs in saline solution and tested hourly over a six hour period. A phenothiazine or non-phenothiazine reference standard is tested concomitantly as a positive control; negative controls receive only the saline vehicle. After administration the rats are positioned hourly with each foot on a No. 7 rubber stopper. A rat is considered cataleptic if it remains immobile on the stoppers for five seconds or longer at two or more consecutive hourly observation intervals.

[3] = system: apomorphine-induced emesis; experiment: Reduction of apomorphine-induced emesis in dogs, oral administration; assay type: in vivo, dog
Description: as §1
as §2, with “Drugs were administered and at suitable intervals the dogs received 0.1 mg/kg of apormorphine hydrochloride subcutaneously.” left out, “contents. […]” for “contents.”
Dogs were re-used at intervals of not less than one week. […] The difference is expressed as a percentage decrease relative to controls. […] The ED50 was calculated by the method of Goldstein (Biostatistics, An Introductory Test; Pages 156-161; The MacMillan Co., New York, 1964). […]

[4] = Catalepsy in rats (IP), modified Tedeschi procedure; assay type: in vivo, rat; settings: rat, in vivo; IP administration in rats; as free base (Table 7)
Description: as §3, §4

Compound O=C(NC1CCN(c2ccccc2)C1)c1ccc([N+](=O)[O-])cc1 (stereo not drawn) [Example 3, N-(1-Phenyl-3-pyrrolidinyl)-4-nitrobenzamide] has a reduction in emesis ([1]; dogs, subcutaneous, dose level of 5 mg./kg. (Table 4 footnote a)) of 50%.
With CC(=O)Nc1ccc(C(=O)NC2CCN(C3CCCCC3)C2)cc1 (stereo not drawn) [Example 7, N-(1-Cyclohexyl-3-pyrrolidinyl)-4-acetamidobenzamide] the ED50 [1] was 2.4 mg/kg.
For O=C(NC1CCN(C2CCCCC2)C1)c1cc([N+](=O)[O-])cc([N+](=O)[O-])c1 (stereo not drawn) [Example 12], the ED50 [1] was 0.15 mg/kg.
Work on O=C(NC1CCN(C2CCCCC2)C1)c1ccc(F)cc1 (stereo not drawn) [Example 10] yielded an ED50 [1] of 0.15 mg/kg.
With Nc1ccc(C(=O)NC2CCN(C3CCCCC3)C2)cc1 (stereo not drawn) [Example 23] the “Catalepsy (As Free Base), percent of rats cataleptic” value ([2]; at 94.2 mg/kg) was 33%.
With O=C(NC1CCN(C2CCCCC2)C1)c1ccccc1 (stereo not drawn) [Example 24] the reduction in emesis ([3]; oral, dose level of 5 mg./kg. (Table 5 footnote a)) was 60%.
With CN(C(=O)c1ccc([N+](=O)[O-])cc1)C1CCN(C2CCCCC2)C1 (stereo not drawn) [Example 27] the “Catalepsy (As Free Base), ED50 or other: highest dose without catatonia” value [2] was “no catatonia to 100” and the lethal dose [2] was 100 mg/kg.
O=C(NC1CCN(C2CCCCC2)C1)c1ccc([N+](=O)[O-])cc1 (stereo not drawn) [Example 25] showed an ED50 [4] of 28 mg/kg.
For CN(C(=O)c1ccc(N)cc1)C1CCN(C2CCCCC2)C1 (stereo not drawn) [Example 4, 4-Amino-N-(1-cyclohexyl-3-pyrrolidinyl)-N-methylbenzamide Cyclohexanesulfamate], the “change in frequency of apomorphine-induced emesis” value ([1]; subcutaneous 5.0 mg./kg. (3.12 mg./kg. as free base), 1 h before apomorphine 0.1 mg./kg. s.c., 40-minute observation, dogs) was -100%, the “change in apomorphine induced emesis” value ([3]; oral 2.5 mg./kg. in capsules, 2 h before apomorphine 0.1 mg./kg. s.c.) was -95% and the “Catalepsy (As Free Base), ED50 or other: highest dose without catatonia” value [2] was “no catatonia to 125”.
